Laboratory results: US20190330189A1, “ANTIBACTERIAL COMPOUNDS” (Janssen Sciences Ireland UC, priority 2015, published 2019)
Like-named read-outs stand apart in the source and are kept apart here.

Experiments:
[1] = system: Mycobacterium tuberculosis strain EH 4.0 (361.269); assay: Test 4: MIC determination, resazurin fluorescence, strain EH 4.0; type: cell-based; details: for IC50: Mycobacterium tuberculosis, read-out: pIC50, Test 4, M. tuberculosis strain EH 4.0 (361.269) (converted); for pIC50: Test 4, M. tuberculosis strain EH 4.0 (361.269)
Excerpt: TEST 4 (See Also Test 1 Above; in this Test a Different Strain of Mycobacterium tuberculosis Strain is Employed)
Appropriate solutions of experimental and reference compounds were made in 96 well plates with 7H9 medium. Samples of Mycobacterium tuberculosis strain EH 4.0 (361.269) were taken from cultures in stationary growth phase. These were first diluted to obtain an optical density of 0.3 at 600 nm wavelength and then diluted 1/100, resulting in an inoculum of approximately 5×10 exp5 colony forming units per well. Plates were incubated at 37° C. in plastic bags to prevent evaporation. After 7 days, resazurin was added to all wells.

[2] = system: Mycobacterium tuberculosis strain H37Rv; assay: Test 1: MIC determination, resazurin fluorescence, M. tuberculosis H37Rv; type: cell-based; details: Mycobacterium tuberculosis, H37RV
[3] = Test 1, M. tuberculosis H37Rv, first test, read-out: pIC50 (converted)
[4] = Test 1, repeated (2nd) test, read-out: pIC50 * (converted)
[5] = Test 1, repeated (3rd) test, read-out: pIC50 ** (converted)

Row | Structure (SMILES) | melting point | IC50 [1] | IC50 [2, 3] | IC50 [2, 4] | IC50 [2, 5] | pIC50 [1]
1 | CCc1nc2ncc(Cl)cn2c1C(=O)NCc1ccc(N2CC3(CC(OC(F)F)C3)C2)cc1 | 163.21 °C |  |  |  |  | 
2 | CCc1nc2sc(C)cn2c1C(=O)NCc1ccc(N2CC3(CC(O)C3)C2)cc1 [Compound 20] | 300 °C | 316 nM |  |  |  | 
3 | CCc1nc2ccc(Cl)cn2c1C(=O)NC1CCC2(CC1)CCN(c1ccc(OC(F)(F)F)cc1)CC2 [Compound 29] |  | 7940 nM | 7940 nM | 6760 nM | 7080 nM | 
4 | Cc1nc2sccn2c1C(=O)NCc1ccc(N2CC3(COC3)C2)cc1 [Compound 30] |  | 7940 nM | 8910 nM | > 12600 nM | 11000 nM | 
5 | CCc1c(C(=O)NCc2ccc(N3CC4(CC(F)C4)C3)cc2)c2ccncc2n1C [Compound 31] |  | > 12600 nM | > 12600 nM | > 12600 nM | > 12600 nM | 
6 | CCc1nc2sc(C)cn2c1C(=O)NCc1ccc(N2CC3(C2)CN(c2ccc(OC(F)(F)F)cc2)C3)cc1 [Compound 68] | 180.57 °C | 63.1 nM |  |  |  | 
7 | CCc1nc2ccc(Cl)cn2c1C(=O)NCc1ccc(N2CCC3(C2)CN(c2ccc(OC(F)(F)F)cc2)C3)cc1 [Compound 75] | 183.86 °C | 15.8 nM |  |  |  | 
8 | CCc1nc2ccc(Cl)cn2c1C(=O)NCc1ccc(N2CC3(CCN(c4ccc(OC(F)(F)F)cc4)C3)C2)cc1 [Compound 76] | 136.04 °C | 25.1 nM |  |  |  | 
9 | CCc1nc2n(c1C(=O)NCc1ccc(N3CC4(CC(c5ccc(OC(F)(F)F)cc5)C4)C3)cc1)CCCC2 [Compound 82] | 190.78 °C | 63.1 nM |  |  |  | 
10 | CCc1nc2sc(C)cn2c1C(=O)NCc1ccc(N2CC3(CC(c4ccc(OC(F)(F)F)cc4)C3)C2)cc1 [Compound 83] | 108.84 °C | 100 nM |  |  |  | 
11 | CCc1nc2ccc(Cl)cn2c1C(=O)NCc1ccc(N2CC3(CC(OC)C3)C2)cc1 [Compound 84] | 137.48 °C | 100 nM |  |  |  | 
12 | CCc1nc2n(c1C(=O)NCc1ccc(N3CC4(CC(OC)C4)C3)cc1)CCCC2 [Compound 85] | 147.41 °C | 1000 nM |  |  |  | 
13 | CCc1nc2ncc(Cl)cn2c1C(=O)NCc1ccc(N2CC3(CC(OC)C3)C2)cc1 [Compound 86] | 127.22 °C | 158 nM |  |  |  | 
14 | CCc1nc2ccc(Cl)cn2c1C(=O)NCc1ccc(N2CC3(CC(c4ccc(OC)c(F)c4)C3)C2)cc1 [Compound 87] | 190.35 °C | 251 nM |  |  |  | 
15 | CCc1nc2ncc(Cl)cn2c1C(=O)NCc1ccc(N2CC3(CC(c4ccc(OC)c(F)c4)C3)C2)cc1 [Compound 88] | 156.54 °C | 251 nM |  |  |  | 
16 | CCc1nc2ccc(Cl)cn2c1C(=O)NCc1ccc(N2CC3(CC(c4ccncc4)C3)C2)cc1 [Compound 89] | 192.86 °C | 6310 nM |  |  |  | 
17 | CCc1nc2ccc(Cl)cn2c1C(=O)NCc1ccc(N2CC3(CN(C(C)=O)C3)C2)cc1 [Compound 90] | 237.63 °C | 12600 nM |  |  |  | 
18 | CCc1nc2ccc(Cl)cn2c1C(=O)NCc1ccc(N2CC3(CN(C(=O)c4ccccc4)C3)C2)cc1 [Compound 91] | 204.21 °C | 10000 nM |  |  |  | 
19 | CCc1nc2ccc(Cl)cn2c1C(=O)NCc1ccc(C2CC3(C2)CN(C(=O)C(F)(F)F)C3)cc1 [Compound 92] | 80.75 °C | 251 nM |  |  |  | 
20 | CCc1nc2ccc(Cl)cn2c1C(=O)NCc1ccc(N2CC3(C2)CC2(C3)OCCCO2)cc1 [Compound 95] | 154.23 °C | 158 nM |  |  |  | 
21 | CCc1nc2ccc(Cl)cn2c1C(=O)NCc1ccc(N2CC3(CC(=O)C3)C2)cc1 [Compound 96] | 182.82 °C | 126 nM |  |  |  | 

Row | Structure (SMILES) | melting point | IC50 [1] | IC50 [2, 3] | IC50 [2, 4] | IC50 [2, 5] | pIC50 [1]
22 | CCc1nc2ccc(Cl)cn2c1C(=O)NCc1ccc(N2CC3(CC(OC(F)(F)F)C3)C2)cc1 [Compound 117] | 167.85 °C | 20 nM |  |  |  | 
23 | Cc1nc2sc(F)cn2c1C(=O)NCc1ccc(N2CC3(CC(=O)C3)C2)cc1 [Compound 118] | 201.34 °C | 12600 nM |  |  |  | 
24 | CCc1nc2ccc(Cl)cn2c1C(=O)NCc1ccc(C2CC3(C2)CN(c2cccnc2)C3)cc1 [Compound 119] | 147.85 °C | 631 nM |  |  |  | 
25 | CCc1nc2ccc(Cl)cn2c1C(=O)NCc1ccc(N2CC3(CC(c4ccccn4)C3)C2)cc1 [Compound 120] | 139.57 °C | 10000 nM |  |  |  | 
26 | CCc1nc2ncc(Cl)cn2c1C(=O)NCc1ccc(N2CC3(C2)CN(c2cccnc2)C3)cc1 [Compound 121] | 241.08 °C | 2510 nM |  |  |  | 
27 | CCc1nc2ncc(Cl)cn2c1C(=O)NCc1ccc(C2CC3(C2)CN(c2cccnc2)C3)cc1 [Compound 122] | 161.23 °C | 794 nM |  |  |  | 
28 | CCc1nc2ccc(Cl)cn2c1C(=O)NCc1ccc(N2CC3(CC(n4cncn4)C3)C2)cc1 [Compound 123] | 166.63 °C | 1580 nM |  |  |  | 
29 | CCc1nc2ccc(Cl)cn2c1C(=O)NCc1ccc(N2CC3(CC(c4nccs4)C3)C2)cc1 [Compound 124] | 135.97 °C | 79.4 nM |  |  |  | 7.2
30 | CCc1nc2ccc(Cl)cn2c1C(=O)NCc1ccc(N2CCC3(CC2)CC(F)(F)C3)cc1 [Compound 125] | 146.77 °C | 2 nM |  |  |  | 
31 | CCc1nc2ncc(Cl)cn2c1C(=O)NCc1ccc(N2CC3(CC(=O)C3)C2)cc1 [Compound 126] | 187.49 °C | 10000 nM |  |  |  | 4.9
32 | Cc1nn2ccccc2c1C(=O)NCc1ccc(C2CC3(C2)CN(c2ccccc2)C3)cc1 [Compound 127] | 201.15 °C | 126 nM |  |  |  | 7.0
33 | CCc1nc2ncc(Cl)cn2c1C(=O)NCc1ccc(C2CC3(C2)CN(C(=O)C(F)(F)F)C3)cc1 [Compound 128] | 160.59 °C | 31.6 nM |  |  |  | 
34 | Cc1nc2sc(Cl)cn2c1C(=O)NCc1ccc(N2CC3(CC(=O)C3)C2)cc1 [Compound 129] | 188.46 °C | 398 nM |  |  |  | 6.5
35 | CCc1nc2n(c1C(=O)NCc1ccc(N3CC4(CC(OC(F)(F)F)C4)C3)cc1)CCCC2 [Compound 130] | 169.56 °C | 15.8 nM |  |  |  | 
36 | CCc1nc2ncc(Cl)cn2c1C(=O)NCc1ccc(N2CC3(CC(OC(F)(F)F)C3)C2)cc1 [Compound 131] | 172.76 °C | 5.01 nM |  |  |  | 
37 | CCc1nc2ccc(Cl)cn2c1C(=O)NCc1ccc(C2CC3(C2)CN(c2cnccn2)C3)cc1 [Compound 132] | 149.46 °C | 7940 nM |  |  |  | 
38 | CCc1nc2ncc(Cl)cn2c1C(=O)NCc1ccc(N2CCC3(CC2)CC(F)(F)C3)cc1 [Compound 133] | 84.29 °C | 2 nM |  |  |  | 
39 | CCc1nc2ncc(Cl)cn2c1C(=O)NCc1ccc(C2CC3(C2)CN(c2cncnc2)C3)cc1 [Compound 134] | 188.07 °C | 6.31 nM |  |  |  | 
40 | CCc1nn2ccccc2c1C(=O)NCc1ccc(C2CC3(C2)CN(c2ccc(OC(F)(F)F)cc2)C3)cc1 [Compound 138] | 105.98 °C | 39.8 nM |  |  |  | 
41 | CCc1nn2c(c1C(=O)NCc1ccc(C3CC4(C3)CN(c3ccc(OC(F)(F)F)cc3)C4)cc1)CCCC2 [Compound 139] | 135.21 °C | 7940 nM |  |  |  | 
42 | Cc1nn2ccccc2c1C(=O)NCC1CC2(CCN(c3ccc(OC(F)(F)F)cc3)CC2)C1 [Compound 140] | 121.52 °C | 1580 nM |  |  |  | 
